Data taken from PMC8780741, “Integration of In Silico, In Vitro and In Situ Tools for the Preformulation and Characterization of a Novel Cardio-Neuroprotective Compound during the Early Stages of Drug Development” (Pharmaceutics, 2022).
Like-named read-outs stand apart in the source and are kept apart here.

Experiments:
[1] = Provisional BCS classification; set-up: key: drugs with high solubility/high permeability (Class 1); drugs with low solubility/high permeability (Class 2); drugs with high solubility/low permeability (Class 3); drugs with low solubility/low permeability (Class 4)
Description: The Biopharmaceutics Classification System (BCS) is a widely used scientific framework for waiver of in vivo bioequivalence studies, as well as for decision-making in drug discovery and development. This tool classifies drug substances according to solubility/dosage and permeability values as follows: drugs with high solubility/high permeability (Class 1), drugs with low solubility/high permeability (Class 2), drugs with high solubility/low permeability (Class 3) and drugs with low solubility/low permeability (Class 4). BCS has proven to be a very important tool for the identification of compounds whose solubility and absorption characteristics may be sensitive to physiological and formulation variables, allowing early optimization in the preformulation stages from the knowledge of the physicochemical properties of the active pharmaceutical ingredient (API). In this sense, it is evident that new compounds with low permeability and solubility/dissolution will have low and highly variable oral bioavailability, which may limit the chances of developing a clinically useful product.
Different provisional biopharmaceutical classification systems have been described in the literature. They mainly use alternative methodologies to predict intestinal permeability. Following the proposal of Kasim et al., JM-20 is a BCS Class 2, based on the aqueous solubility value at room temperature and in silico partition coefficients (log P and ClogP). JM-20 is also classified as BCS class 2 compound by the method proposed by Pham-The et al. where a provisional biopharmaceutical classification was developed based on solubility data (dose number, Do) and predicted or measured permeability in Caco-2 cells. At the same time, permeability values of JM-20 obtained with in vitro cell lines and in situ perfusion in rat were considered for the biopharmaceutical classification of this compound.

[2] = Apparent permeability across Caco-2 monolayers; type: in vitro ADME; settings: human
Description: MDCK (Madin–Darby Canine Kidney) cells, their transfected clone MDCK-MDR1, and Caco-2 cells were grown in the modified Dulbecco Eagle medium added with L-glutamine, fetal bovine serum and penicillin−streptomycin. The number of cells seeded in transwells with a surface area of 4.2 cm^2 depended on the cell line: 250,000 cells/cm^2 for MDCK and Caco-2 and 150,000 cells/cm^2 for MDCK-MDR1. Experiments were performed between 7 and 9 days for MDCK and MDCK-MDR1 and between 19 and 21 for Caco-2 cells after seeding. Prior to drug placement, cell monolayer integrity was assessed by measuring transepithelial electrical resistance (TEER). Transport studies were performed on an orbital shaker at 37 °C and 50 rpm. Four samples of 200 μL were taken from the receptor side at 0, 15, 30, 60 and 90 min, and two samples from the donor compartment at the beginning and end of the experiment. A standard experiment was performed with the same buffer for the apical and basolateral compartments in the apical to basolateral (A-B) and basolateral to apical (B-A) directions. The drug concentration was 100 μM in all experiments and samples were analyzed immediately by HPLC. The retention time was 2.3 min at maximum wavelengths (λmax = 260 nm). The conditions used for HPLC analyses were: mobile phase composed of a mixture of 50% H2O (95% H2O + 0.5% trifluoroacetic) and another 50% HPLC-grade methanol. The stationary phase composed of a Phenomenex® KJ0-4282 column, with two 2 μm filters filled with C-18 microparticles of 40 μm size and a Nova Pak C-18 stainless-steel column of 150 mm length. […] The lower limit of quantitation of JM-20 was adequate to interpolate the values obtained in the samples.
The apparent permeability coefficient was calculated according to the following Equation (2):(2) Creceiver,t=Qtotal/Vreceiver+Vdonor+Creceiver,t−1·f−Qtotal/Vreceiver+Vdonor·e^−Peff0,1·S·1/Vreceiver+1/Vdonor·Δt where Creceiver,t is the concentration of the drug in the receiver compartment at the time t, Qtotal is the total amount of drug in receiver and donor chambers, Vreceiver and Vdonor are the volumes of receiver and donor chamber, respectively, Creceiver,t−1 is the concentration of the drug in receiver compartment at the previous time, f is the replacement dilution factor of the sample, S is the surface area of the monolayer, Δt is the time interval and Peff is the coefficient of permeability, as was described by Mangas-Sanjuan et al. All calculations were developed in Microsoft® Excel (2018).

[3] = Refinement of intrinsic and salt solubility with pDISOL-X
Description: To develop a solution speciation model, the experimental data of log S—pH were used as input into the computer program pDISOL-X [30]. The computational algorithm considers the contributions of all species present in solution, including all buffer components. The program derives its own implicit solubility equations internally, given any practical number of equilibria and estimated constants. The equilibrium constants are subsequently refined by weighted nonlinear least-squares regression. The method can test for the presence of specific buffer drug species. The program assumes an initial condition of a suspension of the solid drug in a solution, ideally with the suspension saturated over a wide range of pH. The software calculates the species distribution as a consequence of a sequence of additions of standardized strong-acid titrant HCl to simulate the suspension pH-speciation down to pH ~ 0, the staging point for the subsequent operation. […] The ionic strength is rigorously calculated at each step, and pKa values (as well as the solubility products and the aggregation and complexation constants) are adjusted accordingly. At the end of the pH-speciation simulation, the calculated log S vs. pH curve is compared to log S vs. pH measured. A log S-weighted nonlinear least squares refinement begins to refine the proposed equilibrium model, using analytical expressions for the differential equations. The process is repeated until the differences between calculated and measured log S values reach a minimum.

BCSCaco-2 ([1]; BCS class from dose number and Caco-2 permeability): 2
BCSMDCK ([1]; BCS class from dose number and MDCK permeability): 2
BCSrat ([1]; BCS class from dose number and rat in situ permeability): 2
BCSGlobal ([1]; overall provisional BCS class): 2
Papp A→B at 90 min, 100 µM ([2]; Caco-2, Caco-2, 100 μM, 37 °C, stirring at 50 rpm): 38.3 ± 1.8 ×10⁻⁶ cm/s
Papp at 90 min, 100 µM ([2]; Caco-2, read-out: Permeability, Caco-2 value (abstract)): 38 ×10⁻⁶ cm/s
Papp B→A at 90 min, 100 µM ([2]; Caco-2, 100 μM, 37 °C, stirring at 50 rpm): 8.5 ± 2.4 ×10⁻⁶ cm/s
efflux ratio at 90 min, 100 µM ([2]; Caco-2 bidirectional transport): 0.13
solubility ([3]; 37 °C, read-out: So, intrinsic solubility calculated by pDISOL-X): 12 µg/mL
solubility ([3]; aqueous buffer, pH 3.5, 37 °C, read-out: Solubility calculated by pDISOL-X): 14.3 µg/mL
solubility ([3]; aqueous buffer, pH 4.0, 37 °C, read-out: Solubility calculated by pDISOL-X): 18.9 µg/mL
solubility ([3]; aqueous buffer, pH 4.5, 37 °C, read-out: Solubility calculated by pDISOL-X): 74.9 µg/mL
solubility ([3]; aqueous buffer, pH 6.8, 37 °C, read-out: Solubility calculated by pDISOL-X): 12.5 µg/mL
solubility ([3]; aqueous buffer, pH 7.4, 37 °C, read-out: Solubility calculated by pDISOL-X): 11.9 µg/mL
solubility ([3]; pH 1.2, 37 °C, read-out: Solubility calculated by pDISOL-X): 3.3 µg/mL
Structure (SMILES): CCOC(=O)C1=C(C)NC2=C(C=Nc3ccccc3N2)C1c1ccccc1[N+](=O)[O-] (stereo not drawn) [JM-20, 3-ethoxycarbonyl-2-methyl-4-(2-nitrophenyl)-4,11-dihydro-1H-pyrido [2,3-b][1,5] benzodiazepine]
